# Data published in ChEMBL document CHEMBL1255520, “Azole derivatives as histamine H3 receptor antagonists, part I: thiazol-2-yl ethers” (Bioorg Med Chem Lett, 2010).
# Target: Histamine H3 receptor (Homo sapiens, UniProt Q9Y5N1)
# Test: Displacement of [125I]iodoproxyfan human histamine H3 receptor
# Sequence of Histamine H3 receptor (Q9Y5N1 whole entry): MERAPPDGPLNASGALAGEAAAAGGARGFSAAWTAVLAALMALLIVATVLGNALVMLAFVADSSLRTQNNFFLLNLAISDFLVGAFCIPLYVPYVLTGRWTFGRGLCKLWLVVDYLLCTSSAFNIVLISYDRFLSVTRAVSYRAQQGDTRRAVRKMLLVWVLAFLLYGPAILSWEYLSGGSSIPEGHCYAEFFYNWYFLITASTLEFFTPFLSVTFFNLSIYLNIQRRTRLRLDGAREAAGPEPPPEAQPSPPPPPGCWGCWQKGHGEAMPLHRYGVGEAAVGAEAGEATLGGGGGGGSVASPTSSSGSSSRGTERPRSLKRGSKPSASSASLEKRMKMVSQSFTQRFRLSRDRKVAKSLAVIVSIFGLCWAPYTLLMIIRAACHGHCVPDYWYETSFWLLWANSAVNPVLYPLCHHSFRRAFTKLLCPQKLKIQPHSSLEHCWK
row,SMILES,Ki [nM]
1,c1ccc(CN2CCc3sc(OCCCN4CCCCC4)nc3C2)cc1,261
2,CN1CCc2sc(OCCCN3CCCCC3)nc2C1,24
3,CC(=O)c1nc(OCCCN2CCCCC2)sc1C,155
4,CCN1CCc2sc(OCCCN3CCCCC3)nc2C1,14
5,Cc1nc(OCCCN2CCCCC2)sc1-c1ccccc1,41
6,C1CCN(CCCOc2nc3c(s2)CCCC3)CC1,357
7,O=C1CCCc2sc(OCCCN3CCCCC3)nc21,> 1000
8,CN(C)CCCOc1nc2c(s1)CCCC2,> 1000
9,CN(C)CCCOc1nc2c(s1)CCOC2,> 1000
10,CN(C)CCCOc1nc2c(s1)CCN(C)C2,257
11,C1CCN(CCCOc2nc3c(s2)CCOC3)CC1,344
12,c1ccc(-c2nc(OCCCN3CCCCC3)sc2-c2ccccc2)cc1,11.2
13,C1CCN(CCCOc2nc3c(s2)CCN(CCCN2CCCCC2)C3)CC1,20
14,Brc1nc(OCCCN2CCCCC2)sc1-c1ccccc1,93
15,CN(C)CCCOc1nc2c(s1)CCCC2=O,153
